For seven compounds, IC50 and EC50 results are on record in BindingDB's records for doi:10.1021/jm501892g (Ensemble Therapeutics, 2015).

The target in test [1] is Baculoviral IAP repeat-containing protein 2 (cIAP1, BIRC2, Homo sapiens) (UniProt Q13490). Put plainly: Inhibition of cIAP1 BIR3 (154 to 352 residues) (unknown origin) by fluoresceinated dimeric SMAC peptide based fluorescence polarization assay. A general note: Polarisation of emitted light reports the rotation of a fluorescent probe.
Sequence of Baculoviral IAP repeat-containing protein 2 (cIAP1, BIRC2, Homo sapiens) (Q13490 whole entry, looked up, the tested form may be a part): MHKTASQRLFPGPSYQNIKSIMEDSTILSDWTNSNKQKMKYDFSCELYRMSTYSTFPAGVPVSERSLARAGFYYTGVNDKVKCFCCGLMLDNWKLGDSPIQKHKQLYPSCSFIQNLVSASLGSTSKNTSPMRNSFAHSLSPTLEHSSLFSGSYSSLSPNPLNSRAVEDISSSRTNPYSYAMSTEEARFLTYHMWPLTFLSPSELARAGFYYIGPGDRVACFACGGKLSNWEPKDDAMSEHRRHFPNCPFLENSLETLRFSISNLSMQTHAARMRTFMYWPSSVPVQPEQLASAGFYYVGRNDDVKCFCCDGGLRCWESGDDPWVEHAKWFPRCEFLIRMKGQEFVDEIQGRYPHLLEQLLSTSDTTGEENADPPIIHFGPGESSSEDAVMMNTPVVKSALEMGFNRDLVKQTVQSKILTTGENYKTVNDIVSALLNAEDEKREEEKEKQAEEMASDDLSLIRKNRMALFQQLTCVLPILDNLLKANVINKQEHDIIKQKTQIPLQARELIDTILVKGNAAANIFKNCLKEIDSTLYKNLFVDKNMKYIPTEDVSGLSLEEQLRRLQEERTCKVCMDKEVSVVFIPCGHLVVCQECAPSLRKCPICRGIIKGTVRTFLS
Test [2] addresses E3 ubiquitin-protein ligase XIAP (BIRC4, Homo sapiens) (UniProt P98170). Kind of test: Inhibition of XIAP BIR2-3 (125 to 356 residues) C202A/C213G mutant (unknown origin) fluoresceinated dimeric SMAC peptide based fluorescence polarization assay.

Sequence of E3 ubiquitin-protein ligase XIAP (BIRC4, Homo sapiens) (P98170 whole entry, looked up, the tested form may be a part): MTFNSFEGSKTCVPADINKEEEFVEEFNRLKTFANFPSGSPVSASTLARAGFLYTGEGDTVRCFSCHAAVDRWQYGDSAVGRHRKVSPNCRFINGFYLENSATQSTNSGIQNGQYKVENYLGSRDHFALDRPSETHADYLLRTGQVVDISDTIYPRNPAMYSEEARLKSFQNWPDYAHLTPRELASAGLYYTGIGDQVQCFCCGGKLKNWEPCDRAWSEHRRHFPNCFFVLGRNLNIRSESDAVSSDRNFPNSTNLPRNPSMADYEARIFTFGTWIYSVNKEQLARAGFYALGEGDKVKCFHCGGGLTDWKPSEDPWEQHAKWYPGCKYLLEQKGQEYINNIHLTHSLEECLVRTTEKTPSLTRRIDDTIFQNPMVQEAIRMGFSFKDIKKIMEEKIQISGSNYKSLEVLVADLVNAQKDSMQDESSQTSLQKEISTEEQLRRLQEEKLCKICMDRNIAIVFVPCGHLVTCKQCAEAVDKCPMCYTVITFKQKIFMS

For orientation: IC50 means the point on the concentration scale where inhibition reaches its midpoint. `CN[C@@H](C)C(=O)N[C@H](C(=O)N1C[C@@H]2C[C@H]1C(=O)N[C@@H](Cc1ccc3ccccc3c1)C(=O)N[C@H](C(=O)O)Cc1ccc(cc1)OCc1cn(nn1)[C@H]1C[C@@H](C(=O)N[C@@H](Cc3ccc4ccccc4c3)C(=O)N[C@H](C(=O)O)Cc3ccc(cc3)OCc3cn2nn3)N(C(=O)[C@@H](NC(=O)[C@H](C)NC)C(C)C)C1)C(C)C` registered an IC50 in test [1] of 17 nM. In the case of `CN[C@@H](C)C(=O)N[C@H](C(=O)N1C[C@@H]2C[C@H]1C(=O)N[C@@H](Cc1cccc3ccccc13)C(=O)N[C@H](C(=O)O)Cc1ccc(cc1)OCc1cn(nn1)[C@H]1C[C@@H](C(=O)N[C@@H](Cc3cccc4ccccc34)C(=O)N[C@H](C(=O)O)Cc3ccc(cc3)OCc3cn2nn3)N(C(=O)[C@@H](NC(=O)[C@H](C)NC)C(C)C)C1)C(C)C`, the IC50 in test [1] is 17 nM. Same read-out and setting: under `CN[C@@H](C)C(=O)N[C@H](C(=O)N1C[C@@H]2C[C@H]1C(=O)N[C@@H](Cc1ccccc1)C(=O)N[C@H](C(=O)O)Cc1ccc(cc1)OCc1cn(nn1)[C@H]1C[C@@H](C(=O)N[C@@H](Cc3ccccc3)C(=O)N[C@H](C(=O)O)Cc3ccc(cc3)OCc3cn2nn3)N(C(=O)[C@@H](NC(=O)[C@H](C)NC)C(C)C)C1)C(C)C` stands 11 nM; under `CN[C@@H](C)C(=O)N[C@H](C(=O)N1C[C@@H]2C[C@H]1C(=O)N[C@@H](Cc1ccccc1)C(=O)N[C@H](C(=O)O)Cc1ccc(cc1)NC(=O)CCc1cn(nn1)[C@H]1C[C@@H](C(=O)N[C@@H](Cc3ccccc3)C(=O)N[C@H](C(=O)O)Cc3ccc(cc3)NC(=O)CCc3cn2nn3)N(C(=O)[C@@H](NC(=O)[C@H](C)NC)C(C)C)C1)C(C)C`, 8 nM. On to `CN[C@@H](C)C(=O)N[C@H](C(=O)N1C[C@@H]2C[C@H]1C(=O)N[C@@H](Cc1ccc3ccccc3c1)C(=O)N[C@H](C(=O)O)Cc1cn(nn1)[C@H]1C[C@@H](C(=O)N[C@@H](Cc3ccc4ccccc4c3)C(=O)N[C@H](C(=O)O)Cc3cn2nn3)N(C(=O)[C@@H](NC(=O)[C@H](C)NC)C(C)C)C1)C(C)C`, for which the IC50 worked out at 9 nM in test [2] and 10 nM in test [1]. Broadly, the EC50 is the concentration needed to bring the measured effect to its halfway point. Compound `CN[C@@H](C)C(=O)N[C@H](C(=O)N1C[C@@H]2C[C@H]1C(=O)N[C@@H](Cc1ccccc1)C(=O)N[C@H](C(=O)O)Cc1ccc(cc1)NC(=O)CCc1cn2nn1)C(C)C` had an EC50 in test [1] of 36 nM. For the compound `CN[C@@H](C)C(=O)N[C@H](C(=O)N1C[C@@H]2C[C@H]1C(=O)N[C@@H](Cc1ccccc1)C(=O)N[C@H](C(=O)O)Cc1ccc(cc1)OCc1cn2nn1)C(C)C`, a half-maximal effect in test [1] (EC50) was put at 20 nM.
